Results as given in PubChem BioAssay AID489033 (Sanford-Burnham Center for Chemical Genomics, 2010).
The source made the active and inactive calls. The rule behind the calls is not given here.

Test system: 697B B-cell line, NF-kB luciferase reporter luminescence
Test: inhibitors of B-cell NF-kB luciferase signal – 697B cells, luminescence, selectivity assay for T-cell antigen receptor NF-kB inhibitors, dose response (AID 489033)

| Compound | IC50 |
| --- | --- |
| Cc1c(C(=O)N/N=C/c2ccc(Cl)cc2)[nH]c2ccc(Cl)cc12 | > 80 µM (inactive) |
| COc1ccc(OC)c(NS(=O)(=O)c2ccc(N3CCCC3=O)cc2)c1 | > 80 µM (inactive) |
| CCO[C@@H]1OC(C(=O)NCc2nc3ccccc3[nH]2)=C[C@H](C(C)(C)C)[C@H]1CCCO | > 80 µM (inactive) |
| CCOc1cc(C(=O)N/N=C/C(Br)=C/c2ccccc2)cc(OCC)c1OCC | 35.6 µM (inactive) |
| COC(=O)c1ccccc1NC1=C/C(=N\S(=O)(=O)c2cccs2)c2ccccc2C1=O | 4.91 µM |
| CC(C)(C)c1nnc(N/N=C/c2ccccc2O)n(N)c1=O | 52.8 µM (inactive) |
| CCOc1ccc(S(=O)(=O)N2c3ccccc3CC2C)cc1 (stereo unspecified) | > 80 µM (inactive) |
| COc1ccc(CS(=O)(=O)/C(Cl)=C(/Cl)C(=O)Nc2ccc(OC)nc2)cc1 | 3.32 µM |
| CCOc1ccccc1N1CC(O)=C(c2nc3ccccc3s2)C1=N | 61 µM (inactive) |
| COc1ccc(S(=O)(=O)Nc2cccc(-c3ccc4nncn4n3)c2)cc1F | > 80 µM (inactive) |
| COC(=O)C[C@]1(C(=O)OC)CN(C#N)N(c2ccc(Cl)cc2)C12c1ccccc1-c1ccccc12 | 4.43 µM |
| COc1cccc(OC)c1C1=NCC(=O)Nc2c1oc1ccc(Br)cc21 | 56.8 µM (inactive) |
| O=C(Nc1ccc(Cl)c(S(=O)(=O)N2CCOCC2)c1)c1ccc(OCC2CCCO2)cc1 (stereo unspecified) | 4.54 µM |
| Cc1ccc(S(=O)(=O)/N=C2\C=C(Nc3ccc(O)cc3)C(=O)c3ccccc32)cc1 | 2.04 µM |
| O=C(Nc1ccccc1Cl)/C(Cl)=C(\Cl)S(=O)c1ccccc1 (stereo unspecified) | 0.53 µM |
| CC(C)(C)c1ccc(C(=O)O/N=C(\N)c2ccccc2)cc1 | 0.17 µM |
| Cc1noc(C)c1CSc1nc2ccccc2c(=O)n1-c1ccccc1 | > 80 µM (inactive) |
| CCCCCCCCn1c2c(c(=N)c3c1CCC3)CCCC2 | 27.5 µM (inactive) |
| CCCCCCCCCCCCCCCC[n+]1ccc(/C=N/O)cc1 | 13 µM |
| CCCCCCCn1c2c(c(=N)c3ccccc31)CCC2 | 3.7 µM |
| CC(C)(C)c1ccc(C(=O)Nc2ccc(Oc3cccnc3)nc2)cc1 | 3.28 µM |

| Compound | IC50 |
| --- | --- |
| CCOc1ccc(N/C(N)=N/c2nc(CSc3nnc(C)s3)cc(=O)[nH]2)cc1 | > 80 µM (inactive) |
| CCOC(=O)N1CCN(C(=O)C2CCCN(Cc3nc(-c4ccc(Cl)cc4)oc3C)C2)CC1 (stereo unspecified) | 33.9 µM (inactive) |
| Cc1csc2sc(-c3ccnc(SCC(=O)NCc4ccccc4)n3)c(C)c12 | > 80 µM (inactive) |
| COc1ccc(C2=NOC(C(=O)NCc3cccs3)C2)cc1OC (stereo unspecified) | > 80 µM (inactive) |
| COc1cc(NC(=O)N2CCNC2=O)cc(C(=O)Nc2cccc(C(F)(F)F)c2)c1 | < 0.16 µM |
| Cc1oc2c(c1C(=O)NCc1cccnc1)C(=O)c1ccccc1C2=O | 4.69 µM |
| CCn1c2ccccc2c2cc(NC(=O)c3cc(OC)c(OC)c(OC)c3)ccc21 | 18.5 µM |
| CS(=O)(=O)c1ccc(Sc2nc3ccccc3s2)c([N+](=O)[O-])c1 | 1.11 µM |
| Cc1cc(C(C)(C)C)cc(C)c1C[n+]1ccc2ccccc2c1 | > 80 µM (inactive) |
| O=[N+]([O-])c1ccc(O)c(/C=N/Nc2ccc(Cl)nn2)c1 | > 80 µM (inactive) |
| CCCCCCCCCCn1ccc(=N)cc1 | 11.7 µM |
| CCOc1ccccc1C(=O)N1CCN(c2cccc(Cl)c2)CC1 | > 80 µM (inactive) |
| O=C(NCCOc1ccccc1)c1cc([N+](=O)[O-])ccc1N1CCOCC1 | > 80 µM (inactive) |
| CC(=O)c1ccc(N2CCN(S(=O)(=O)c3ccc4c(c3)CC(C)N4C(=O)C3CC3)CC2)cc1 (stereo unspecified) | 0.72 µM |
| COc1cc(C(=O)OCCc2cc3ccccc3c(=O)o2)cc(OC)c1OC | > 80 µM (inactive) |
| CC1=Nc2ccccc2/C1=C\c1sc(Nc2ccc(C)cc2)nc1O | 61 µM (inactive) |
| CC(C)c1ccc(/C=N/Nc2ccc(C(=O)O)cc2)cc1 | 10.7 µM |
| C=CCn1c(C)cc(C2=NNC(=NCC)SC2)c1C | < 0.16 µM |
| CC(=O)NC(c1ccc2ccccc2c1)c1ccc2cccnc2c1O (stereo unspecified) | > 80 µM (inactive) |
| CC(C)(C)c1csc(Sc2ccc([N+](=O)[O-])cn2)n1 | 10.2 µM |
